Results as given in patent US20160158200A1, “Combinations of Hepatitis C Virus Inhibitors” (priority 2013, published 2016).

tested on: HCV genotype-1a variant with glutamine 30 changed to glutamate in the NS5A protein; format: cell-based; conditions: test compound titrated with BMS-790052 fixed at 200 nM; genotype 1a Q30E replicon
Outline: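 Synergy was assessed by combining several fixed amounts of an NS5A-targeting compound with a titration of the second compound of interest.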

SMILES	Fold-Synergistic 1a (Q30E) [fold]
CC1(C(=O)N[C@H](c2nc(-c3ccc(-c4ccc(-c5c[nH]c([C@@H](NC(=O)C6(C)CCOCC6)C(C)(C)C)n5)cc4)cc3)c[nH]2)C(C)(C)C)CCOCC1 [Compound W-130]	>100
CC(C)(C)[C@H](NC(=O)C1(C2(O)CCC(F)(F)CC2)CC1)c1nc(-c2ccc(-c3ccc4c(c3)CCc3nc([C@@H](NC(=O)C5(C6(O)CCC(F)(F)CC6)CC5)C(C)(C)C)[nH]c3-4)cc2)c[nH]1 [Compound B13B]	>100
CC(C)(NC(=O)OC1CCCCC1)C(=O)N[C@H](c1nc(-c2ccc(-c3ccc(-c4c[nH]c([C@@H](NC(=O)C(C)(C)NC(=O)OC5CCCCC5)C(C)(C)C)n4)cc3)cc2)c[nH]1)C(C)(C)C [Compound Q-6]	>100
CC(C)[C@H](NC(=O)CCN1CCCC1=O)c1ncc(-c2ccc(-c3ccc(-c4cnc([C@@H](NC(=O)CCN5CCCC5=O)C(C)C)[nH]4)cc3)cc2)[nH]1 [Compound S-59]	<10
CC(C)(C(=O)N[C@H](c1nc(-c2ccc(-c3ccc(-c4c[nH]c([C@@H](NC(=O)C(C)(C)C(F)F)C(C)(C)C)n4)cc3)cc2)c[nH]1)C(C)(C)C)C(F)F [Compound P-32]	>100
CC(C)[C@H](NC(=O)C1(C(F)(F)F)CC1)c1ncc(-c2ccc(-c3ccc(-c4cnc([C@@H](NC(=O)C5(C(F)(F)F)CC5)C(C)C)[nH]4)cc3)cc2)[nH]1 [Compound P-88]	>100
O=C(c1nccc2c(Cl)cccc12)N1CCC[C@H]1c1ncc(-c2ccc(-c3ccc(-c4cnc([C@@H]5CCCN5C(=O)c5nccc6c(Cl)cccc56)[nH]4)cc3)cc2)[nH]1 [Compound S-206]	>100
CC(C)(C)C(NC(=O)C1CCC(O)CC1)c1nc(-c2ccc(-c3ccc(-c4c[nH]c(C(NC(=O)C5CCC(O)CC5)C(C)(C)C)n4)cc3)cc2)c[nH]1 (stereo not shown) [Compound W-134]	>100
CC(C)(C)[C@H](NC(=O)C1CC1(F)F)c1nc(-c2ccc(-c3ccc(-c4c[nH]c([C@@H](NC(=O)C5CC5(F)F)C(C)(C)C)n4)cc3)cc2)c[nH]1 (stereo partly shown) [Compound N-45a]	>100
CC(C)[C@H](NC(=O)C(=O)C1CC2CCC(C1)C2(F)F)c1ncc(-c2ccc(-c3ccc(-c4cnc([C@@H](NC(=O)C(=O)C5CC6CCC(C5)C6(F)F)C(C)C)[nH]4)cc3)cc2)[nH]1 (stereo partly shown) [Compound P-129]	>100
CC(C)[C@H](NC(=O)Cc1cnccn1)c1ncc(-c2ccc(-c3ccc(-c4cnc([C@@H](NC(=O)Cc5cnccn5)C(C)C)[nH]4)cc3)cc2)[nH]1 [Compound S-60]	<10
CC1(C)CCN(C(=O)C(=O)N2CCC(F)(F)CC2)C1c1nc(-c2ccc(-c3ccc(-c4c[nH]c(C5N(C(=O)C(=O)N6CCC(F)(F)CC6)CCC5(C)C)n4)cc3)cc2)c[nH]1 (stereo not shown) [Compound W-222]	>100
Cc1ccccc1C(C(=O)NC(c1nc(-c2ccc(-c3ccc(-c4c[nH]c(C(NC(=O)C(c5ccccc5C)C(C)C)C(C)(C)C)n4)cc3)cc2)c[nH]1)C(C)(C)C)C(C)C (mixture of isomers) [Compound S-258]	>100
COCCC(=O)N[C@H](c1ncc(-c2ccc(-c3ccc(-c4cnc([C@@H](NC(=O)CCOC)C(C)C)[nH]4)cc3)cc2)[nH]1)C(C)C [Compound S-51]	>10
CN(C(=O)OC(C)(C)C)C1(C(=O)N[C@H](c2nc(-c3ccc(-c4ccc(-c5c[nH]c([C@@H](NC(=O)C6(N(C)C(=O)OC(C)(C)C)CC6)C(C)(C)C)n5)cc4)cc3)c[nH]2)C(C)(C)C)CC1.O=C(O)C(F)(F)F.O=C(O)C(F)(F)F [Compound L-13]	>100
CC1([C@H](NC(=O)N2CCC(F)(F)CC2)c2nc(-c3ccc(-c4ccc(-c5c[nH]c([C@@H](NC(=O)N6CCC(F)(F)CC6)C6(C)CC6)n5)cc4)cc3)c[nH]2)CC1 [Compound P-135]	>100
CC(C)[C@H](NC(=O)C1(C)CCCC1)c1ncc(-c2ccc3c(c2)Cc2cc(-c4cnc([C@@H](NC(=O)C5(C)CCCC5)C(C)C)[nH]4)ccc2-3)[nH]1.O=C(O)C(F)(F)F [Compound N-72]	>100
COCC(NC(=O)C1CCC(F)(F)CC1)c1nc(-c2ccc(-c3ccc(-c4c[nH]c(C(COC)NC(=O)C5CCC(F)(F)CC5)n4)cc3)cc2)c[nH]1 [Compound L-102]	>100
CC(=O)N(C)C1(C(=O)N[C@H](c2nc(-c3ccc(-c4ccc(-c5c[nH]c([C@@H](NC(=O)C6(N(C)C(C)=O)CCC6)C(C)(C)C)n5)cc4)cc3)c[nH]2)C(C)(C)C)CCC1.O=C(O)C(F)(F)F.O=C(O)C(F)(F)F [Compound L-12]	>100
CC(C)(C)C(NC(=O)C1CC(=O)c2ccccc21)c1nc(-c2ccc(-c3ccc(-c4c[nH]c(C(NC(=O)C5CC(=O)c6ccccc65)C(C)(C)C)n4)cc3)cc2)c[nH]1 (mixture of isomers) [Compound S-257]	>10

SMILES	Fold-Synergistic 1a (Q30E) [fold]
CC(C)[C@H](NC(=O)N1CCCCC1)c1ncc(-c2ccc(-c3ccc(-c4cnc([C@@H](NC(=O)N5CCCCC5)C(C)C)[nH]4)cc3)cc2)[nH]1 [Compound S-234]	>100
CC1CN(C(=O)C(=O)N[C@H](c2nc(-c3ccc(-c4ccc(-c5c[nH]c([C@@H](NC(=O)C(=O)N6CC(C)OC(C)C6)C(C)(C)C)n5)cc4)cc3)c[nH]2)C(C)(C)C)CC(C)O1 (single isomer, unassigned) [Compound W-40A]	>100
Cc1ccccc1C(=O)N[C@H](c1ncc(-c2ccc(-c3ccc(-c4cnc([C@@H](NC(=O)c5ccccc5C)C(C)C)[nH]4)cc3)cc2)[nH]1)C(C)C [Compound S-70]	>100
CC(C)CC(=O)N[C@H](c1ncc(-c2ccc(C#Cc3ccc(-c4cnc([C@@H](NC(=O)CC(C)C)C(C)(C)C)[nH]4)cc3)cc2)[nH]1)C(C)(C)C [Compound N-3]	>10
CC(C)(C)[C@H](NC(=O)CC1CCC(F)(F)CC1)c1nc(-c2ccc(-c3ccc(-c4c[nH]c([C@@H](NC(=O)CC5CCC(F)(F)CC5)C(C)(C)C)n4)cc3)cc2)c[nH]1 [Compound N-112]	>100
CC(C)[C@H](NC(=O)c1cc(Cl)ccc1Cl)c1ncc(-c2ccc(-c3ccc(-c4cnc([C@@H](NC(=O)c5cc(Cl)ccc5Cl)C(C)C)[nH]4)cc3)cc2)[nH]1 [Compound S-67]	>100
CC(C)CC(=O)N1C[C@@H](C)C[C@H]1c1nc(-c2ccc(-c3ccc(-c4c[nH]c([C@@H]5C[C@H](C)CN5C(=O)CC(C)C)n4)cc3)cc2)c[nH]1 [Compound P-51]	<10
CC(C)(C)[C@H](NC(=O)C1(C(O)c2ccccc2)CC1)c1nc(-c2ccc(-c3ccc(-c4c[nH]c([C@@H](NC(=O)C5(C(O)c6ccccc6)CC5)C(C)(C)C)n4)cc3)cc2)c[nH]1 (single isomer, unassigned) [Compound N-126A]	>100
CC(C)[C@H](NC(=O)OCC(C)(C)C)c1ncc(-c2ccc(-c3ccc(-c4cnc([C@@H](NC(=O)OCC(C)(C)C)C(C)C)[nH]4)cc3)cc2)[nH]1 [Compound S-210]	>100
CC(C)[C@H](NC(=O)CCCc1ccccc1)c1ncc(-c2ccc(-c3ccc(-c4cnc([C@@H](NC(=O)CCCc5ccccc5)C(C)C)[nH]4)cc3)cc2)[nH]1 [Compound S-57]	>100
CC(C)(C)[C@H](NC(=O)c1cccc(Cl)c1)c1ncc(C#Cc2ccc3cc(-c4cnc([C@@H](NC(=O)c5cccc(Cl)c5)C(C)(C)C)[nH]4)ccc3c2)[nH]1 [Compound B3]	>100
CC[C@H](C(=O)N[C@H](c1ncc(-c2ccc(-c3ccc(-c4cnc([C@@H](NC(=O)[C@@H](CC)c5ccccc5)C(C)C)[nH]4)cc3)cc2)[nH]1)C(C)C)c1ccccc1 [Compound P-61]	>100
CC(COCc1ccccc1)(OCCF)C(=O)N[C@H](c1nc(-c2ccc(-c3ccc(-c4c[nH]c([C@@H](NC(=O)C(C)(COCc5ccccc5)OCCF)C(C)(C)C)n4)cc3)cc2)c[nH]1)C(C)(C)C (single isomer, unassigned) [Compound W-261b]	>100
CC(C)(C)[C@H](NC(=O)[C@@]1(C)CC(F)(F)CO1)c1nc(-c2ccc(-c3ccc(-c4c[nH]c([C@@H](NC(=O)[C@@]5(C)CC(F)(F)CO5)C(C)(C)C)n4)cc3)cc2)c[nH]1 [Compound Y-77]	>100
CC(C)[C@H](NC(=O)c1ccc(Cl)c(Cl)c1)c1ncc(-c2ccc(-c3ccc(-c4cnc([C@@H](NC(=O)c5ccc(Cl)c(Cl)c5)C(C)C)[nH]4)cc3)cc2)[nH]1 [Compound S-75]	>100
CC(C)(C)OC(=O)N1CCC(F)(F)C[C@H]1C(=O)N[C@H](c1nc(-c2ccc(-c3ccc(-c4c[nH]c([C@@H](NC(=O)[C@@H]5CC(F)(F)CCN5C(=O)OC(C)(C)C)C(C)(C)C)n4)cc3)cc2)c[nH]1)C(C)(C)C [Compound L-21]	>100
CC(C)CC(=O)N1CCC[C@H]1c1ncc(-c2ccc(-c3ccc(C4=CNC([C@@H]5CCCN5C(=O)CC(C)C)N4)cc3)cc2)[nH]1 (stereo partly shown) [Compound S-112]	<10
COC1(C(=O)C(=O)N[C@H](c2ncc(-c3ccc(-c4ccc(-c5cnc([C@@H](NC(=O)C(=O)C6(OC)CCC(F)(F)CC6)C(C)C)[nH]5)cc4)cc3)[nH]2)C(C)C)CCC(F)(F)CC1 [Compound P-126]	>100
COC(c1ccccc1)C1(C(=O)N[C@H](c2nc(-c3ccc(-c4ccc(-c5c[nH]c([C@@H](NC(=O)C6(C(OC)c7ccccc7)CC6)C(C)(C)C)n5)cc4)cc3)c[nH]2)C(C)(C)C)CC1 (stereo partly shown) [Example N-137]	<10
CC(C)(C)OC(=O)N1CCCC1C(=O)N[C@H](c1nc(-c2ccc(-c3ccc(-c4c[nH]c([C@@H](NC(=O)C5CCCN5C(=O)OC(C)(C)C)C(C)(C)C)n4)cc3)cc2)c[nH]1)C(C)(C)C (stereo partly shown) [Compound W-86]	>100
